Source: patent US9017744B2, “Method of using isomaltulose to suppress blood glucose level increase” (Mitsui Sugar Co., Ltd., priority 2002, dated 2015)

How the values were obtained:
[1] = Blood glucose level test after ingesting drinks (Example 1); type: in vivo, human; conditions: for blood glucose level increase: FIG. 1
Description: Using each of the Comparative drinks as a control sample, a blood glucose level test after ingesting the drink was performed as will be described later. […] Using each of the Example drinks as a test sample, a blood glucose level test after ingesting the drink was performed. The blood glucose level test was as follows: Five healthy volunteers (4 males and 1 female), 31-40 aged, were selected as the test subjects. They took no breakfast on a test day and kept fasting for 12 hrs or more before the start of the test. Their bloods were collected before ingesting a drink (0 min), and 30 min, 60 min, 90 min, and 120 min after ingesting it. As a result their blood glucose levels are determined. One kind of drink was ingested for one test. Another drink was ingested on another day and the test was carried out once a day for total 8 days. The same five test subjects were applied to all the tests for blood glucose levels. In the Example 1, the free style Kissei kit (made by Kissei Pharmaceutical Co., LTD) was used to collect blood samples and test a blood glucose level.

[2] = Body fat accumulation in mice fed feeds for 8 weeks (Example 3); type: in vivo, C57BL/6CrSlc(SPF) male mice
Source text: Mice were consecutively fed with a feed added with isomaltulose, a feed added with sucrose and no isomaltulose, and a feed added with both isomaltulose and sucrose to compare their body fat accumulation amount.
C57BL/6CrSlc(SPF) male mice (30 heads) aged 7 weeks were fed with a commercial powder feed (trade name: CRF-1 powder, made by Oriental Yeast Co., LTD) and water ad libitum to prefeed for a week. […] The groups were fed with their respective feeds and water ad libitum for 8 weeks. The feeding condition was as follows: temperature 22±3° C., humidity (relative humidity) 50±20%, ventilation cycles 13-17 times/hr, and lighting time 8:00-20:00 (light 12 hrs, dark 12 hrs).
After the end of the feeding, the mice were light anesthetized with ether and sectioned abdominally to exsanguinate from postcava to death. For a typical example of every group, digital photographs showing body fat accumulation inside the abdominal cavity were taken. Then, for all the cases, the kidney peripheral fat (including the retroperitoneal fat) and the epididymis peripheral fat were taken out to measure their wet weights separately in left and right. The mesenteric fat also was taken out to measure its wet weight. These three kinds of fat tissues are typical of visceral fat. […]

[3] = Heat coloring of carbohydrate with glutamic acid (Test Example 1); type: physicochemical; conditions: for absorbance at a wavelength of 420 nm: 5 g carbohydrate + 1 g glutamic acid in 50 g
Description: 5 g of carbohydrate and 1 g of glutamic acid were dissolved in distilled water to prepare a sample having a total weight of 50 g. […] These samples were filled in 100 ml capped vials and then heated at 100° C. for 50 min. After the heating, samples were cooled and respective absorbances were measured at a wavelength of 420 nm.
Three same kinds of samples were prepared and treated in an autoclave at 121° C. for 20 min, that is, the same level as in retort sterilization for a canned food, and measured the absorbance at a wavelength of 420 nm.

[4] = Crystallization of 50 wt % solutions stored at 5° C. (Test Example 2); type: physicochemical
Description: Dissolution was performed until no crystal remained at 50° C. These vials were put in a refrigerator set at 5° C. to observe crystallization.

[5] = monohydrate; at 20° C.; cited from earlier work
[6] = rats; high fat diet, all sucrose replaced by isomaltulose, compared with sucrose-containing feed; cited from earlier work
[7] = autoclave at 121° C. for 20 min

absorbance at a wavelength of 420 nm [3, 7]	absorbance at a wavelength of 420 nm ([3]; heated at 100° C. for 50 min)	visual colour of sample [3, 7]	storage time at which crystallization began ([4]; 50 wt % solution, 100 ml)	amount of crystal ([4]; 50 wt % solution, 100 ml, after 6 days)	crystallization observed ([4]; 50 wt % total sugar solution, during 6 days)	SMILES	increase in blood glucose level after consuming the carbohydrates ([1]; 25 g isomaltulose in combination with 25 g sucrose or 25 g glucose)	area under blood glucose level increase curve ([1]; 25 g isomaltulose in combination with 25 g sucrose or 25 g glucose, compared with the Comparative groups)	minimum intake of isomaltulose necessary to reduce an increase in blood glucose level ([1]; in vivo)	blood glucose level increase ([1]; simultaneous ingestion of 25 g isomaltulose and 25 g glucose, compared with 25 g glucose alone)	blood glucose level increase ([1]; simultaneous ingestion of 25 g isomaltulose and 25 g sucrose, compared with 50 g sucrose alone and 25 g sucrose alone)	isomaltulose ratio in total carbohydrate at which the GI value surely decreased ([1]; total carbohydrate weight 50 g, FIG. 4)	ratio of isomaltulose in carbohydrate at which it reduces the accumulation of body fat ([2]; mouse, in vivo)	minimum intake of isomaltulose necessary to reduce a body fat accumulation ([2]; presumed, in terms of a person having a body weight of 60 kg)	solubility [5]	body fat accumulation amount [6]	blood glucose level 30 minutes after ingesting ([1]; 25 g ingested alone (Comparative example))	blood glucose level 30 minutes after ingesting ([1]; 50 g ingested alone (Comparative example))
0.322	0.004	clearly deep brown	2 days	10.77 g	–	OC[C@H]1O[C@H](OC[C@H]2OC(O)(CO)[C@@H](O)[C@@H]2O)[C@H](O)[C@@H](O)[C@@H]1O (stereo partly drawn) [isomaltulose, 6-O-alpha-D-Glucopyranosyl-D-fructofuranose]	no sudden increases	significantly lower values	≥ 5 g	reduced	reduced	≥ 10%	≥ 20%	≥ 10 g	38.4 g in 100 g water	lower body fat accumulation amount	–	–
–	–	clearly light brown	–	–	no crystallization	OC[C@H]1O[C@@](CO)(O[C@H]2O[C@H](CO)[C@@H](O)[C@H](O)[C@H]2O)[C@@H](O)[C@@H]1O [sucrose, reference compound]	–	–	–	–	–	–	–	–	–	–	sudden increase	sudden increase
